Data taken from US11071735B2, “Treatment of inflammatory conditions and autoimmune diseases with glucose uptake inhibitors” (Kadmon Corporation, LLC, priority 2017, dated 2021).

Legend:
[1] = system: GLUT; test: glycolysis assay (oligomycin + Cell Titer-Glo ATP readout) in HT1080 cells; assay type: cell-based; settings: 10 μM oligomycin, one hour, glycolytically-derived ATP
Summary of the method: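 HT1080 cells exposed for one hour to compound plus 10 μM oligomycin to block mitochondrial ATP, so remaining ATP reflects glycolysis. Glycolytic ATP read by CellTiter-Glo luminescence; IC50 derived from dose-response curves.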

[2] = biological target: T1, GLUT1 (Homo sapiens, UniProt P11166); test: glycolysis assay in DLD1 WT cells (rely on GLUT1); assay type: cell-based; settings: DLD1-WT cells; 10 μM oligomycin, one hour
T1 construct: endogenous in cells; host or cells: DLD1 WT cancer cells
T1 sequence (P11166 1-492): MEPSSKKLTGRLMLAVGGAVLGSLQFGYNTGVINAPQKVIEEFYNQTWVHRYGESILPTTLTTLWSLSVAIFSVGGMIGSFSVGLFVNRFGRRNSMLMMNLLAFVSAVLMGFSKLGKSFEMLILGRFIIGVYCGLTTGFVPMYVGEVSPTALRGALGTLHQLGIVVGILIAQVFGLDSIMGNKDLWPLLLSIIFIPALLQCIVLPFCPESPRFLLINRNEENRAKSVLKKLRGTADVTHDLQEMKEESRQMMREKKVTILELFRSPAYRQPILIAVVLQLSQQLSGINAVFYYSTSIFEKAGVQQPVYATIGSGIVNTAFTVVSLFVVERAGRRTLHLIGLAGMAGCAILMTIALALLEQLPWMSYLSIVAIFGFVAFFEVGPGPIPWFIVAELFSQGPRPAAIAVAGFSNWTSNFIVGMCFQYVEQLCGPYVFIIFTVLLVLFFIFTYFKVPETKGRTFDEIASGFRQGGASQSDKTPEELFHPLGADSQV
Summary of the method: (§1)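 Cells […] exposed for 1 h to inhibitor plus 10 μM oligomycin to block mitochondrial ATP; remaining glycolytic ATP read by CellTiter-Glo luminescence. IC50 derived from dose-response curves.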

[3] = biological target: T2, GLUT3 (Homo sapiens, UniProt P11169); test: glycolysis assay in DLD1 GLUT1−/− cells (rely on GLUT3); assay type: cell-based; settings: DLD1-KO (GLUT1−/−) cells; 10 μM oligomycin, one hour
T2 construct: endogenous in cells; host or cells: DLD1 GLUT1−/− (knock-out) cancer cells
T2 sequence (P11169 1-496): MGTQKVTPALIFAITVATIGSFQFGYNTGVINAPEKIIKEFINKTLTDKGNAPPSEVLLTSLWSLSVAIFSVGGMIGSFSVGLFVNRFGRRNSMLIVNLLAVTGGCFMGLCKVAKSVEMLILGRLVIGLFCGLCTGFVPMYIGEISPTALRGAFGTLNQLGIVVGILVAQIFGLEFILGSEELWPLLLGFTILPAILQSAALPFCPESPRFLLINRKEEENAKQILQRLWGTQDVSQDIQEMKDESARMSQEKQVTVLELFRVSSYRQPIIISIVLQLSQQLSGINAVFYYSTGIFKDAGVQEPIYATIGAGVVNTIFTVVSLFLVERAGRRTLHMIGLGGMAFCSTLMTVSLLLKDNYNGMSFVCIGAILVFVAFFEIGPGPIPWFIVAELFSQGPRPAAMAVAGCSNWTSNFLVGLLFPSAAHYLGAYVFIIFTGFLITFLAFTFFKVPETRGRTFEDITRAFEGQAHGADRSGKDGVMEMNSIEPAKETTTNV
Summary of the method: as §1

[4] = system: TNFalpha and MCP-1 levels; test: LPS/D-galactosamine mouse model, cytokine production; assay type: in vivo; settings: 100 mg/kg p.o.
Procedure: 100 μg LPS and 18 mg D-galactosamine were used to induce cytokine production. […] In FIG. 6, Example 2 is shown to modulate cytokine/chemokine production in response to LPS/D-galactosamine (mouse model of sepsis and liver damage). Example 2 prevents the dramatic increase of TNFalpha (FIG. 6A), a cytokine well-established as a major driver of inflammation. In line with in vitro results, Example 2 abrogates an initial increase in MCP-1 (FIG. 6B), but is unable to statistically suppress MCP1 induction at later time points (not shown). LPS Mouse Model: Performed at Pharmalegacy.

Work on `CCOc1ccc2nc(-c3cccc(OCC(=O)NC(C)C)c3)nc(Nc3ccc(-c4cn[nH]c4)cc3)c2c1` [Ex. 2, 2-(3-(4-((4-(1H-pyrazol-4-yl)phenyl)amino)-6-ethoxyquinazolin-2-yl)phenoxy)-N-isopropylacetamide] yielded an IC50 [1] of 149 nM, an IC50 [2] of 115 nM and an IC50 [3] of 60.9 nM. The “increase of MCP-1 levels” value ([4]; 2 hours post LPS/Galn) was “unable to prevent a statistically significant increase”, the “increase of MCP-1” value ([4]; one hour following LPS/Galn) was “inhibits the increase” and the “increase of TNFalpha” value ([4]; one hour following LPS/Galn) was “inhibits the increase”.
